What all share (assay): In Vitro Kinase Assay
Common to all, as to details: pH 7

The target of assay [1] is Epidermal growth factor receptor (Homo sapiens, UniProt P00533). On the procedure: (§1) Inhibition of kinase activity against a variety of recombinant kinases [FLT3, FLT3 D835Y, anaplastic lymphoma kinase (ALK), insulin receptor, and epidermal growthfactor receptor (EGFR)] was measured using homogeneous time-resolved fluorescence (HTRF) assays [Choi et al., Bioorg. Med. Chem. Lett., 20:2033-2037]. Assays consist of enzymes mixed with serially diluted compounds and peptide substrates in a kinase reaction buffer (250 mM HEPES (pH 7.0), 0.5 mM orthovanadate, 0.05% bovine serum albumin, 0.1% NaN3). Following the addition of reagents for detection, the TR-FRET signal was measured using an EnVision multi-label reader (Perkin Elmer, Waltham, MA).

A further assay deals with Insulin receptor (Homo sapiens, UniProt P06213). As for the experimental part:
as §1

In assay [2] the target is ALK tyrosine kinase receptor (Homo sapiens, UniProt Q9UM73). On the procedure:
as §1

This note sets out measurements from BindingDB's records for doi:10.3109/14756366.2010.515215 (Gyeongsang National University, 2011).

Molecules are shown by their SMILES. Where only a bound is given, the exact number is not on record here.

Chain of Epidermal growth factor receptor (P00533 whole entry): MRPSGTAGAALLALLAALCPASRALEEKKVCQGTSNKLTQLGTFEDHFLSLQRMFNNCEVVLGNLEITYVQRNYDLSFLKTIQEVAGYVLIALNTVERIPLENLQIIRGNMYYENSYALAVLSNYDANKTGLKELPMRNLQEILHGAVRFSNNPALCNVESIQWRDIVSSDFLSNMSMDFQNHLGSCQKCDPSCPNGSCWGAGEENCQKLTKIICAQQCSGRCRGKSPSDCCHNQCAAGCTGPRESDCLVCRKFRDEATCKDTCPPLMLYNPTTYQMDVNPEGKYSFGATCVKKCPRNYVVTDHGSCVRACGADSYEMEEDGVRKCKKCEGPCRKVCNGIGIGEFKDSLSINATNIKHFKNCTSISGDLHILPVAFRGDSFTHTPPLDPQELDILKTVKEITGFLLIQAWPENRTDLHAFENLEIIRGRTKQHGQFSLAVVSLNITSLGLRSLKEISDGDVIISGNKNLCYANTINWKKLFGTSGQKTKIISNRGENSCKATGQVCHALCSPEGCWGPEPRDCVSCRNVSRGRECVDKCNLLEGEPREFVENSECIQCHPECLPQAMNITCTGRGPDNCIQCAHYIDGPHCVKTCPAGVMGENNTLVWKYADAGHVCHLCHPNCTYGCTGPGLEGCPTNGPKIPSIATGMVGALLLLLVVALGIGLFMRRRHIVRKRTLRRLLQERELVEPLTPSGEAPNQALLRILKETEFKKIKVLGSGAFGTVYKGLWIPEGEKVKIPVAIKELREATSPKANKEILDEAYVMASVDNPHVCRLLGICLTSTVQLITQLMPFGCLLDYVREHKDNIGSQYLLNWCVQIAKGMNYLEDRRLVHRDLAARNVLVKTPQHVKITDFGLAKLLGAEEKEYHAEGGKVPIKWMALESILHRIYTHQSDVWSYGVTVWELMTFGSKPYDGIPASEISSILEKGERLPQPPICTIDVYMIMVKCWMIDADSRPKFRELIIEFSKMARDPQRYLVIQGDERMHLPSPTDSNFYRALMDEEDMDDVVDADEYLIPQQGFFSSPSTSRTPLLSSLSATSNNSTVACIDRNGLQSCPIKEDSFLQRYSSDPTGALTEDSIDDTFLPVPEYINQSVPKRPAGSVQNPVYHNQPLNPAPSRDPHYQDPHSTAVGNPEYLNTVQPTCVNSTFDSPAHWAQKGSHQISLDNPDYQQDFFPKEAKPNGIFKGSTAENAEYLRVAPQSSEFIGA
Chain of Insulin receptor (P06213 28-758 limits assumed): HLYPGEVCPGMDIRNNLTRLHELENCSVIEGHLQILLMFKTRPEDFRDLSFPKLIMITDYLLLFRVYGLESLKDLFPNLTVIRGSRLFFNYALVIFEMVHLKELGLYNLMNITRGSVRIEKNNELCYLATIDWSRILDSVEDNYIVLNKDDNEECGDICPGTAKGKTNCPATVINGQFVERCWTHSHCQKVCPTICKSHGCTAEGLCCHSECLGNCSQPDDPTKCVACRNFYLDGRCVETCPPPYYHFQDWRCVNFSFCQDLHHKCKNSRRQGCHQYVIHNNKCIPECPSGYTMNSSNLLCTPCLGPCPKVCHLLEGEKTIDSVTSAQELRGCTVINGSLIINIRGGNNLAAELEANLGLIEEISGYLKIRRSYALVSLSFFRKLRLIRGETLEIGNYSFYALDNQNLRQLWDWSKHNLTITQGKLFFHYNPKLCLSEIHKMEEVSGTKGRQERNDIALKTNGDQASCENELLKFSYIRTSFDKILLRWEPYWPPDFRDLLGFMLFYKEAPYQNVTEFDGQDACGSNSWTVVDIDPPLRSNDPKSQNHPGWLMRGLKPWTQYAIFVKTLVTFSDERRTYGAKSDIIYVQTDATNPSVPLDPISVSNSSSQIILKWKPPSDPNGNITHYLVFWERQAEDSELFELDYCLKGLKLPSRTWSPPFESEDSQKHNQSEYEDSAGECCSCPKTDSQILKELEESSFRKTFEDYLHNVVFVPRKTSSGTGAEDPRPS
Chain of Insulin receptor (P06213 763-1382 limits assumed): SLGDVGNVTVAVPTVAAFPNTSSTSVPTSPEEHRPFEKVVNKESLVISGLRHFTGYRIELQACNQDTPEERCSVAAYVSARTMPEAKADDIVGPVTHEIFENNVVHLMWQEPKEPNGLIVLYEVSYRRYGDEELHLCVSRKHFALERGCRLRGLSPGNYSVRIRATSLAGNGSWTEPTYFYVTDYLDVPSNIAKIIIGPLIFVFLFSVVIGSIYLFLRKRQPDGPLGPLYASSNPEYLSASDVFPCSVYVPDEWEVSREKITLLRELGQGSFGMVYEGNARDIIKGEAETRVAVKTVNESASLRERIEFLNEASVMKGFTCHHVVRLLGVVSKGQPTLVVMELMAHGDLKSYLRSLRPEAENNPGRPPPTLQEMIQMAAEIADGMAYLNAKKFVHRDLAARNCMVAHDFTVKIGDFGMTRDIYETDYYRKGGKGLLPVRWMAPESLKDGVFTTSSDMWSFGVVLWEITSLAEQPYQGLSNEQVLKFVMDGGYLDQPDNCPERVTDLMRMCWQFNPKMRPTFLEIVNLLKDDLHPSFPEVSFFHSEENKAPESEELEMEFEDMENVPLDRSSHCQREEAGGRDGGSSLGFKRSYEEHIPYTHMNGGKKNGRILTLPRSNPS
Chain of ALK tyrosine kinase receptor (Q9UM73 whole entry): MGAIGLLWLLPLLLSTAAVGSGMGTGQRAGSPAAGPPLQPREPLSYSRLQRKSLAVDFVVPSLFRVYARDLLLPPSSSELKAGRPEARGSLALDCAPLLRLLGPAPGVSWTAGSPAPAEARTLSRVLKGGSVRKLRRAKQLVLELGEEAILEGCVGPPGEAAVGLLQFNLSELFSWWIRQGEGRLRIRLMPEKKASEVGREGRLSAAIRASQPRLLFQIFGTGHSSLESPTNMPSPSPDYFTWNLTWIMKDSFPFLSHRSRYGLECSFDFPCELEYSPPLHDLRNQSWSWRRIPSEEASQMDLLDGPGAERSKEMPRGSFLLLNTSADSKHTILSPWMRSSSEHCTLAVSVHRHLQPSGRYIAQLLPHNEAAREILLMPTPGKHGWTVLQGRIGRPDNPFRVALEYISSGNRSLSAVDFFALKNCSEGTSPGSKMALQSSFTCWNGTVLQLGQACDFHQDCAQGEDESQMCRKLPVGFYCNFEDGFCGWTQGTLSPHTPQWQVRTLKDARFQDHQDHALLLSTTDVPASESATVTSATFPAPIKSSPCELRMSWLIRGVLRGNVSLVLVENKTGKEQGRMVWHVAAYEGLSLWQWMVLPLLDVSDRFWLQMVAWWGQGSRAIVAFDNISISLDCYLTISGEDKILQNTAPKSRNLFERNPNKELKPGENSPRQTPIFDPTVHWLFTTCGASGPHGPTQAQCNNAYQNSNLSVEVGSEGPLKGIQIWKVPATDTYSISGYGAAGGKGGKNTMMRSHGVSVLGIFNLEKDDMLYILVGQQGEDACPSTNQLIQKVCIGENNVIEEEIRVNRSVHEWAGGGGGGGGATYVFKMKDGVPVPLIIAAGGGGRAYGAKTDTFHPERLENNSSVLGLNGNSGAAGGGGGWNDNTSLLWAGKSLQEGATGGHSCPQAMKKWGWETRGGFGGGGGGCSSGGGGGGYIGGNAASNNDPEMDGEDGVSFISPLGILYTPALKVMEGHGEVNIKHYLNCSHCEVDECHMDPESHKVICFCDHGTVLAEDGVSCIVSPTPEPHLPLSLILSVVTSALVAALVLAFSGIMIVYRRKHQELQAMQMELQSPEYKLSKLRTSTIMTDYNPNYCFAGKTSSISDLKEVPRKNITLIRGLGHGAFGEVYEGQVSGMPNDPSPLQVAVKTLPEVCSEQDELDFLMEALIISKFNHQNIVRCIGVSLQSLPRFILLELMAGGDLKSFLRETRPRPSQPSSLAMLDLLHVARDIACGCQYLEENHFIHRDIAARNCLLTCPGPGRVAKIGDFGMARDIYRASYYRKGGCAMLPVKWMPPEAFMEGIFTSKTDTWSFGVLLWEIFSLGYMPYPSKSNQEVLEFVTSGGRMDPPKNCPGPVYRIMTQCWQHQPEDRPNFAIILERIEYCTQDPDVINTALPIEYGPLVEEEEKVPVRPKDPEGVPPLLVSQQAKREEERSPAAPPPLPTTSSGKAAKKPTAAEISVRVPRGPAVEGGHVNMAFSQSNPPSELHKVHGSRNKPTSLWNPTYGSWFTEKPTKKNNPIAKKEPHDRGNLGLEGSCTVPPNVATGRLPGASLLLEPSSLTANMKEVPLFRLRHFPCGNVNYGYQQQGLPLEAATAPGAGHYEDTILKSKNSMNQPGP

As usually defined, the IC50 is the concentration at which inhibition is half-maximal. In the case of `O=c1c2cc(O)c(O)cc2oc2cc(O)c(C3O[C@H](CO)[C@@H](O)[C@H](O)[C@H]3O)c(O)c12` (stereo partly drawn) [Mangiferin], the IC50 in assay [1] was greater than 10 µM; on Insulin receptor it was greater than 10 µM; in assay [2], 0.81 µM.
